The record followed here is PubChem BioAssay AID248 (DTP/NCI, 2004).

For the experiment, the system named is L1210 leukemia ip in BDF1 mice, survival T/C. Kind of experiment: NCI In Vivo Anticancer Drug Screen. Data for tumor model L1210 Leukemia (intraperitoneal) in B6D2F1 (BDF1) mice. The conditions noted are these: endpoint: mean survival time, higher = longer survival. In a few lines: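 Value reflects the ratio of survival in compound-treated mice to survival in vehicle-treated controls, with both groups carrying the same transplanted tumor.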

[1] abbreviates: dose: 50.0 mg/kg/injection, schedule: Q01DX009 (ip), vehicle: saline.
The mark [2] stands for this setting: dose: 50.0 mg/kg/injection, schedule: Q04DX003 (ip), vehicle: saline.
Setting [3] is: dose: 100.0 mg/kg/injection, schedule: Q01DX009 (ip), vehicle: saline.
Where [4] appears, read: dose: 100.0 mg/kg/injection, schedule: Q04DX003 (ip), vehicle: saline.
Setting [5] is: dose: 200.0 mg/kg/injection, schedule: Q04DX003 (ip), vehicle: saline.
The mark [6] stands for this setting: dose: 400.0 mg/kg/injection, schedule: Q01DX001 (ip), vehicle: Klucel (hydroxypropylcellulose) (HPC).
Setting [7] is: dose: 100.0 mg/kg/injection, schedule: Q01DX009 (ip), vehicle: Klucel (hydroxypropylcellulose) (HPC).
The mark [8] stands for this setting: dose: 200.0 mg/kg/injection, schedule: Q01DX009 (ip), vehicle: Klucel (hydroxypropylcellulose) (HPC).
The mark [9] stands for this setting: dose: 400.0 mg/kg/injection, schedule: Q01DX009 (ip), vehicle: Klucel (hydroxypropylcellulose) (HPC).
Setting [10] is: dose: 100.0 mg/kg/injection, schedule: Q01DX001 (ip), vehicle: saline.
Where [11] appears, read: dose: 100.0 mg/kg/injection, schedule: Q04DX003 (ip), vehicle: Klucel (hydroxypropylcellulose) (HPC).
Where [12] appears, read: dose: 200.0 mg/kg/injection, schedule: Q04DX003 (ip), vehicle: Klucel (hydroxypropylcellulose) (HPC).
Where [13] appears, read: dose: 400.0 mg/kg/injection, schedule: Q04DX003 (ip), vehicle: Klucel (hydroxypropylcellulose) (HPC).
Where [14] appears, read: dose: 200.0 mg/kg/injection, schedule: Q01DX001 (ip), vehicle: saline.
Setting [15] is: dose: 400.0 mg/kg/injection, schedule: Q01DX001 (ip), vehicle: saline.
Where [16] appears, read: dose: 200.0 mg/kg/injection, schedule: Q01DX009 (ip), vehicle: saline.
[17] abbreviates: dose: 100.0 mg/kg/injection, schedule: Q04DX002 (ip), vehicle: Klucel (hydroxypropylcellulose) (HPC).

Toxic doses and inconclusive results are not listed.

`O=C1C2C(C(=O)N1c1ccc([N+](=O)[O-])cc1)C1c3ccccc3C2C2CCCCN21` (stereo not drawn): the T/C under setting [1] is 95 % of control; the T/C under setting [2] was 104 % of control; the T/C under setting [3] is 92 % of control; the T/C under setting [4] was 97 % of control; the T/C under setting [5] is 88 % of control.

In the case of `CCCCCCCCCCCCCCCCOc1ccc(Sc2ccc([N+](=O)[O-])cc2)cc1`, the T/C under setting [6] is 87 % of control.

In the case of `Nc1ccc(Cc2ccc(Br)cc2)cc1`, the T/C is 91 % of control (dose: 75.0 mg/kg/injection, schedule: Q01DX001 (ip), vehicle: acetone); 94 % of control (dose: 150.0 mg/kg/injection, schedule: Q01DX001 (ip), vehicle: acetone); 94 % of control (dose: 300.0 mg/kg/injection, schedule: Q01DX001 (ip), vehicle: acetone).

With `C1CCC2(CC1)CCNCC2`, the T/C (dose: 50.0 mg/kg/injection, schedule: Q01DX001 (ip), vehicle: saline) was 102 % of control.

Turning to `CCOP(=O)(OCC)C(=O)N(CC)CC`, the T/C is, setting by setting: under setting [7], 101 % of control; under setting [8], 90 % of control; under setting [9], 91 % of control.

As for `CC[n+]1ccc(Nc2ccc(NC(=O)c3ccc(C(=O)Nc4ccc(Nc5cc[n+](CC)c(N)n5)cc4)cc3)cc2)nc1N`, the T/C by setting is: under setting [10], 190 % of control; (dose: 133.0 mg/kg/injection, schedule: Q01DX009 (ip), vehicle: saline) 88 % of control; (dose: 150.0 mg/kg/injection, schedule: Q01DX001 (ip), vehicle: saline) 228 % of control; (dose: 225.0 mg/kg/injection, schedule: Q01DX001 (ip), vehicle: saline) 203 % of control.

Regarding `COC(=O)C(C)CN1CCCC1` (stereo not drawn), the T/C (dose: 12.5 mg/kg/injection, schedule: Q01DX009 (ip), vehicle: saline) was 97 % of control; the T/C (dose: 25.0 mg/kg/injection, schedule: Q01DX009 (ip), vehicle: saline) is 88 % of control; the T/C (dose: 25.0 mg/kg/injection, schedule: Q04DX003 (ip), vehicle: saline) is 98 % of control; the T/C under setting [1] is 100 % of control; the T/C under setting [2] was 107 % of control; the T/C under setting [4] was 104 % of control.

Turning to `COC(=O)CN(c1c(C)cc(C)c(N)c1C)S(=O)(=O)c1ccccc1`, the T/C runs as follows: (dose: 100.0 mg/kg/injection, schedule: Q01DX001 (ip), vehicle: Klucel (hydroxypropylcellulose) (HPC)) 95 % of control; under setting [11], 96 % of control; (dose: 200.0 mg/kg/injection, schedule: Q01DX001 (ip), vehicle: Klucel (hydroxypropylcellulose) (HPC)) 103 % of control; under setting [12], 100 % of control; under setting [6], 97 % of control; under setting [13], 107 % of control.

Consider `CN(C)S(=O)(=O)c1ccc(NC(=O)OCc2ccccc2)cc1`, for which the T/C was 96 % of control under setting [10], 94 % of control under setting [14] and 92 % of control under setting [15].

Regarding `CC(=O)Nc1ccc2c(c1)Cc1cc(Br)ccc1-2`, the T/C by setting is: under setting [11], 100 % of control; under setting [12], 100 % of control; under setting [13], 103 % of control.

Take `CC(C)(CNC1=NCCO1)NC1=NCCO1`: the T/C under setting [1] is 105 % of control, the T/C under setting [3] is 107 % of control and the T/C under setting [16] was 103 % of control.

`O=C(Nc1ccccc1F)Oc1ccc2ccccc2c1`: the T/C under setting [7] is 106 % of control, the T/C under setting [8] is 107 % of control and the T/C under setting [9] is 103 % of control.

Take `CNS(=O)(=O)c1ccc(NC(=O)CI)cc1`: the T/C by setting is: (dose: 3.0 mg/kg/injection, schedule: Q01DX009 (ip), vehicle: Klucel (hydroxypropylcellulose) (HPC)) 112 % of control; (dose: 6.0 mg/kg/injection, schedule: Q01DX009 (ip), vehicle: Klucel (hydroxypropylcellulose) (HPC)) 96 % of control; (dose: 12.0 mg/kg/injection, schedule: Q01DX009 (ip), vehicle: Klucel (hydroxypropylcellulose) (HPC)) 108 % of control; (dose: 12.5 mg/kg/injection, schedule: Q01DX001 (ip), vehicle: other) 96 % of control; (dose: 12.5 mg/kg/injection, schedule: Q04DX003 (ip), vehicle: other) 93 % of control; (dose: 25.0 mg/kg/injection, schedule: Q01DX001 (ip), vehicle: other) 96 % of control. Besides, the T/C (dose: 50.0 mg/kg/injection, schedule: Q01DX001 (ip), vehicle: other) was 88 % of control.

Consider `O=[N+]([O-])c1ccc(CS(=O)Cc2ccccc2)cc1` (stereo not drawn), for which the T/C (dose: 75.0 mg/kg/injection, schedule: Q01DX001 (ip), vehicle: carboxymethylcellulose (CMC)) is 91 % of control; the T/C (dose: 150.0 mg/kg/injection, schedule: Q01DX001 (ip), vehicle: carboxymethylcellulose (CMC)) is 100 % of control; the T/C (dose: 300.0 mg/kg/injection, schedule: Q01DX001 (ip), vehicle: carboxymethylcellulose (CMC)) was 100 % of control.

With `c1ccc(C2OCCCO2)cc1`, the T/C (dose: 12.5 mg/kg/injection, schedule: Q01DX009 (ip), vehicle: Klucel (hydroxypropylcellulose) (HPC)) is 92 % of control; the T/C (dose: 25.0 mg/kg/injection, schedule: Q01DX009 (ip), vehicle: Klucel (hydroxypropylcellulose) (HPC)) was 100 % of control; the T/C under setting [9] was 87 % of control.

On to `Clc1ccc(/C=C/c2cccc(/C=C/c3ccc(Cl)cc3)n2)cc1`, for which the T/C by setting is: under setting [11], 96 % of control; under setting [12], 97 % of control; under setting [13], 97 % of control.

For the molecule `[Mg+2]`, the T/C runs as follows: under setting [10], 96 % of control; under setting [3], 95 % of control; under setting [4], 93 % of control; under setting [14], 91 % of control; under setting [16], 95 % of control; under setting [5], 89 % of control. The T/C is, setting by setting: under setting [15], 96 % of control; (dose: 400.0 mg/kg/injection, schedule: Q01DX009 (ip), vehicle: saline) 97 % of control; (dose: 400.0 mg/kg/injection, schedule: Q04DX003 (ip), vehicle: saline) 88 % of control.

Turning to `O=C(O)CNC(=O)NCO`, the T/C by setting is: (dose: 100.0 mg/kg/injection, schedule: Q01DX001 (ip), vehicle: acetone) 100 % of control; (dose: 200.0 mg/kg/injection, schedule: Q01DX001 (ip), vehicle: acetone) 100 % of control; (dose: 400.0 mg/kg/injection, schedule: Q01DX001 (ip), vehicle: acetone) 103 % of control.

On to `Clc1ccc(SCSc2nc3ccccc3s2)cc1`, for which the T/C runs as follows: (dose: 25.0 mg/kg/injection, schedule: Q04DX002 (ip), vehicle: Klucel (hydroxypropylcellulose) (HPC)) 105 % of control; (dose: 50.0 mg/kg/injection, schedule: Q04DX002 (ip), vehicle: Klucel (hydroxypropylcellulose) (HPC)) 86 % of control; under setting [17], 93 % of control.

On to `O=P(O)(O)OCC1OC(O)(COP(=O)(O)O)C(O)C1O` (stereo not drawn), for which the T/C was 100 % of control (dose: 100.0 mg/kg/injection, schedule: Q04DX002 (ip), vehicle: saline); 106 % of control (dose: 200.0 mg/kg/injection, schedule: Q04DX002 (ip), vehicle: saline); 95 % of control (dose: 400.0 mg/kg/injection, schedule: Q04DX002 (ip), vehicle: saline).

As for `O=C(O)c1ccc(Oc2nc3ccccc3s2)cc1`, the T/C runs as follows: (dose: 100.0 mg/kg/injection, schedule: Q01DX009 (ip), vehicle: saline with Tween-80) 102 % of control; (dose: 100.0 mg/kg/injection, schedule: Q04DX003 (ip), vehicle: saline with Tween-80) 111 % of control; (dose: 200.0 mg/kg/injection, schedule: Q01DX009 (ip), vehicle: saline with Tween-80) 120 % of control; (dose: 200.0 mg/kg/injection, schedule: Q04DX003 (ip), vehicle: saline with Tween-80) 97 % of control; (dose: 400.0 mg/kg/injection, schedule: Q04DX003 (ip), vehicle: saline with Tween-80) 86 % of control.

With `CN1C(=O)c2ccccc2/C=C\c2ccccc21`, the T/C was 103 % of control under setting [17]; 92 % of control (dose: 200.0 mg/kg/injection, schedule: Q04DX002 (ip), vehicle: Klucel (hydroxypropylcellulose) (HPC)); 87 % of control (dose: 400.0 mg/kg/injection, schedule: Q04DX002 (ip), vehicle: Klucel (hydroxypropylcellulose) (HPC)).
